Series [1] in a line: distribution coefficient P. The series is classed as physicochemical.
Series [2] has as its system Gram positive and Gram negative bacteria. In words: dark toxicity of the stains for bacteria. The series is classed as cell-based. Conditions: TB compared with MB, without irradiation. Here is the method:
The observed dark toxicity was higher for toluidine blue (TB) than for methylene blue (MB). This is consistent with the distribution coefficient P that was determined to be 0.33 for TB and 0.11 for MB.
While dark toxicity for Gram positive bacteria was nearly unrelated to type, the dark toxicity for Gram negative bacteria is quite clearly a function of type and specifically corresponds to the trans-membrane permeability coefficient of the exterior membrane of Gram negative bacteria.
Dark toxicity was a function of both the concentration and the incubation period prior to irradiation.

The nature of series [3]: penetration depth of MB solutions into normal oral mucosa. Conditions: after 10-min incubation time. From the text: The clinical application of PDT is possible since the stain solutions selectively color cell systems, while the interaction with the epithelium is very limited. […] Furthermore, the life expectancy of the active radicals and their precursors is microseconds, so that it is practically assured that there are no concomitant destructive effects in healthy tissue due to diffusion, since there is not enough time for this.

Another series concerns P. aeruginosa. Briefly: photodynamic reduction of P. aeruginosa. The series is classed as cell-based. Conditions: concentration of 200˜mol; energy density of 100 mW/cm^2. From the text: (§1) Completely reducing Gram negative germs requires 3-30 times higher concentrations. P. aeruginosa was reduced […] by 3.5 log10 CFU at a concentration of 200˜mol and an energy density of 100 mW/cm^2.

The test system of series [4] is all examined microorganisms. Briefly: in vitro reduction of microorganisms by methylene blue solutions in culture medium. Type of series: cell-based. Conditions: culture medium being used.
For another series, the system named is Gram negative germs. Briefly: complete reduction of Gram negative germs. The series is classed as cell-based. Conditions: compared with 25-44 μmol for Gram positive bacteria.
Text: as §1

The next series has as its system Gram positive bacteria. In words: in vitro reduction of Gram positive bacteria by methylene blue solutions. The series is classed as cell-based. From the text: Methylene blue solutions reduce almost all Gram positive bacteria in a concentration of 25-44 μmol in vitro.
The subject of the next series is colon tumors. Conditions: 20 μg/mL, intratumorally applied, without irradiation; cited from earlier work.

As to `Cc1cc2nc3ccc(N(C)C)cc3[s+]c2cc1N.[Cl-]` [TB, toluidine blue], the “distribution coefficient P” value in series [1] amounted to 0.33. Moreover, the observed dark toxicity entry in series [2] is given as “higher”.
Turning to `CN(C)c1ccc2nc3ccc(=[N+](C)C)cc-3sc2c1` [Methylene blue, phenothiazin-5-ium, 3,7-bis(dimethylamino)-chloride], the “penetration depth into the epithelium” value in series [3] is on record as 1-2 exterior layers of cells. Moreover, the “reduction of P. aeruginosa” value with P. aeruginosa was determined as 3.5 log10 CFU. The “reduction of the number of microorganisms in the culture medium” value in series [4] is “able to reduce the number of all examined microorganisms”. Further, the “concentration needed for completely reducing Gram negative germs, relative to Gram positive bacteria” value in the series on Gram negative germs was 3-30 times higher. The “concentration that reduces almost all Gram positive bacteria” value with Gram positive bacteria lay within 25 to 44 µmol. Besides, the “destruction of colon tumors by the substance alone” value in the series with colon tumors is “not destroyed”.

The record behind these values is US8486123B2, “Micro-organism-reducing device” (bredent medical GmbH & Co., KG, priority 2003, dated 2013).
